pIC50: −log10 of the molar value.
Biological target: T1, Signal transducer and activator of transcription 1-alpha/beta (Homo sapiens, UniProt P42224)
T1 sequence (P42224 whole entry): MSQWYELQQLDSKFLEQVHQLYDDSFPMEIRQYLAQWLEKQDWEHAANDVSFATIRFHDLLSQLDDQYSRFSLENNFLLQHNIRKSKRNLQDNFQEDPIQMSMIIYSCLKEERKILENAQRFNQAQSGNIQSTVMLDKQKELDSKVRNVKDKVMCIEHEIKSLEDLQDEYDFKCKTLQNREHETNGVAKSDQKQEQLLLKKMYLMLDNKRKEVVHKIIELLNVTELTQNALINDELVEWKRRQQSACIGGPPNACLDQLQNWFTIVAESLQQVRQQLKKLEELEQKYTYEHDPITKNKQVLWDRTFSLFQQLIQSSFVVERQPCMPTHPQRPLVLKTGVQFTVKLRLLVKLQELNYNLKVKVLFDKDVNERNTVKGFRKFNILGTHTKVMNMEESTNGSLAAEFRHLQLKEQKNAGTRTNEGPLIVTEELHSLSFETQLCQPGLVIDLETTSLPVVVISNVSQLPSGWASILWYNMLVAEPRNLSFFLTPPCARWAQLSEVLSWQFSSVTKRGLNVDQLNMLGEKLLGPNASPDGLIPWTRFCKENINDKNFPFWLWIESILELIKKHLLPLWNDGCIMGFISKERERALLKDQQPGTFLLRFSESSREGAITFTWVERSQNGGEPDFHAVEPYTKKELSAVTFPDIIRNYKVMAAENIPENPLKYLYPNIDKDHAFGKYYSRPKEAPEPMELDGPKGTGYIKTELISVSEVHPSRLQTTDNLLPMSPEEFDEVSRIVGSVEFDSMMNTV
Assay: Bioassay Evaluation
Description: Compound samples (in 3-5 mg quantities) were evaluated in a variety of assays.

CC1Sc2nnc(-c3[nH]nc4c3CCC4)n2N=C1c1ccc(Cl)c(Cl)c1 (configuration not stated) [US10618914, Compound 19]
pIC50: < 4.30

CC1(C)Sc2nnc(-c3[nH]nc4c3CCC4)n2N=C1c1ccc(Cl)c(Cl)c1 [US10618914, Compound 32]
pIC50: < 4.30

Reference: BindingDB's records for patent US10618914 (University of Pittsburgh, 2020)
